This is an account of results in patent US10472341B2, “Bicyclic tetrahydrothiazepine derivatives useful for the treatment of neoplastic and/or infectious diseases” (APEIRON BIOLOGICS AG, priority 2015, dated 2019).

Where “and” joins values, the source holds several entries; their conditions need not be identical. Equal values may be shown once. Where a name gives a salt, the structure may show the parent alone. Read-outs that look alike come from different tables or passages of the source.

In test [1] the test system is aCD3/aCD28-stimulated human PBMCs. Description: Cytokine production in aCD3/aCD28 stimulated human PBMCs. The settings on record: PBMC, 18 h. The class given is cell-based. Summed up:
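Ficoll-isolated human PBMCs at 1e6 cells/mL in X-Vivo15, stimulated with soluble anti-CD3/CD28 (OKT3 and 28.2, 1 μg/mL each) plus compound for 18 h at 37° C. Supernatant cytokines quantified by MSD or HTRF.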

For test [2], the system named is CD4 T cells. The test can be described thus: CD69 expression on aCD3/aCD28 stimulated isolated human CD4 T cells (flow cytometry). Particulars: 24 h after TCR stimulation, read-out: Activity Class CD69 (CD4). The class given is cell-based. The method, then:
(§1) Isolated T cells were plated in Xvivo medium at 1.5*10 ^5 cells per in 96 well culture plates and TCR-stimulated with anti-CD3/28 mAbs in the presence of compound as indicated. Cytokine production was determined at 24 h or 48 h following TCR stimulation in cell culture supernatants using commercially available ELISA kits (BD and eBioscience) as recommended by the manufacturer. T cell proliferation and CD25 expression (CD25-PC5 reagent purchased from Beckman Coulter) was determined by flow cytometry (Beckman-Coulter FC500) and analysed with Kaluza Software. For measurement of CD69 expression, isolated CD4 and CD8 T cells were plated in Xvivo medium at […] per in 96 well culture plates and TCR-stimulated with anti-CD3/28 mAbs in the presence of compound. CD69 expression was determined at 24 h following TCR stimulation by flow cytometry (CD4eF450, CD8APCeF780 and CD69-PC7 reagent purchased from eBioscience) and analysed with Kaluza Software.
(§2) For measurement of CD69 expression, isolated CD4 and CD8 T cells were plated in Xvivo medium at 80000 cells per in 96 well culture plates and TCR-stimulated with anti-CD3/28 mAbs in the presence of compound. CD69 expression was determined at 24 h following TCR stimulation by flow cytometry (CD4eF450, CD8APCeF780 and CD69-PC7 reagent purchased from eBioscience) and analysed with Kaluza Software.

Test [3] relates to CD8 T cells. The test can be described thus: CD69 expression on aCD3/aCD28 stimulated isolated human CD8 T cells (flow cytometry). The class given is cell-based. Particulars: T-cell, 24 h after TCR stimulation, read-out: Activity Class CD69 (CD8). The procedure: as §1, §2
Test [4] concerns aCD3/aCD28-stimulated human CD4+-T-cells. The test can be described thus: IL-2 production and activation markers in aCD3/aCD28 stimulated isolated human CD4+-T-cells. Type of test: cell-based. Particulars: IL-2 production at 3 μM compound. Summed up: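 CD4+ T cells isolated from buffy-coat PBMCs by microbeads were plated in Xvivo medium (1.5*10^5 cells/well) and stimulated with anti-CD3/28 mAbs plus compound. IL-2 measured by ELISA in supernatants at 24 h or 48 h; CD25 and proliferation by flow cytometry, CD69 at 24 h. Activity classes based on IL-2 at 3 μM compound.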

Test [5] relates to CD8 T cells & M21 tumor cells. Description: CD8 T cells from M21-prestimulated PBMCs restimulated with M21 tumor cells, with or without PD-1 blockade. The class given is cell-based, human. The settings on record: for Average Granzyme B / Average IFN-g / Average IL-2 / Average Number of living M21 tumor cells: no cpd. The method, then:
For experiments investigating effects of PD-1 blockade, PBMCs were preincubated with 1 h UV-irradiated M21 tumor cells (50000 tumor cells per 1 Mill. PBMCs) for 14 days. […] Compounds and anti-PD-1 antibody (Nivolumab) or control antibody without direct effects on CD8 T cells (Ipilimumab) were added where indicated.
[…] Example 107, no antibody (no Ig), anti-PD-1 antibody (Nivolumab) or control antibody without direct effects on CD8 T cells (Ipilimumab) were included where indicated.

The mark [6] stands for this setting: enhancement of IFN-γ production, read-out: Activity Class IFN-γ.
The mark [7] stands for this setting: enhancement of IL-2 production, read-out: Activity Class IL-2.

For `Cl.N[C@H]1CS(=O)(=O)c2cc(F)c(C(=O)N[C@@H]3CC3(F)F)cc2N(Cc2ccc(Cl)cc2)C1=O` (single isomer, unassigned) [Example 106, hydrochloride], the EC50 in test [1] (setting [6]), in test [1] (setting [7]), in test [2] and in test [3] was 1580 to 5010 nM each time.
As to `Cl.N[C@H]1CS(=O)(=O)c2cc(F)c(C(=O)N[C@H]3CC3(F)F)cc2N(Cc2ccc(Cl)cc2)C1=O` (single isomer, unassigned) [Example 107, hydrochloride], the EC50 in test [1] (setting [6]), in test [1] (setting [7]), in test [2] and in test [3] was under 1580 nM each time.
On to `N[C@H]1C[S@+]([O-])c2cc(F)c(C(=O)NCCCC(F)(F)F)cc2N(Cc2ccc(Cl)cc2)C1=O` (single isomer, unassigned) [Example 122, hydrochloride], for which the EC50 in test [1] (setting [6]) was under 1580 nM; in test [1] (setting [7]) it was 1580 to 5010 nM; in test [2], 1580 to 5010 nM; in test [3], 1580 to 5010 nM.
Consider `N[C@H]1C[S@@+]([O-])c2cc(F)c(C(=O)NCCCC(F)(F)F)cc2N(Cc2ccc(Cl)cc2)C1=O` (single isomer, unassigned) [Example 123, hydrochloride], for which the EC50 in test [1] (setting [6]) is under 1580 nM; in test [1] (setting [7]), 1580 to 5010 nM; in test [2] it was over 5010 nM; in test [3], over 5010 nM.
For the compound `C[C@@H]1[C@H](N)C(=O)N(Cc2ccc(Cl)cc2)c2cc(C(=O)NCCCC(F)(F)F)ccc2S1(=O)=O.Cl` [Example 111, (2R,3R)-3-amino-5-[(4-chlorophenyl)methyl]-2-methyl-1,1,4-trioxo-N-(4,4,4-trifluorobutyl)-2,3,4,5-tetrahydro-1λ^6,5-benzothiazepine-7-carboxamide hydrochloride], the EC50 in test [1] (setting [6]) and in test [1] (setting [7]) was 1580 to 5010 nM each time. Also, in test [4], the “Activity Class CD4+” value was “B (IL-2 production at 3 μM compound concentration between 2-10 ng/mL)”.
In the case of `Cl.N[C@H]1CSc2cc(F)c(C(=O)NCc3ccc(F)cc3)cc2N(Cc2nnc(C3CC3)s2)C1=O` [Example 113, (3R)-3-amino-5-[(5-cyclopropyl-1,3,4-thiadiazol-2-yl)methyl]-8-fluoro-N-[(4-fluorophenyl)methyl]-4-oxo-2,3,4,5-tetrahydro-1,5-benzothiazepine-7-carboxamide hydrochloride], the values for the EC50 in test [1] (setting [6]) and in test [1] (setting [7]) were 1580 to 5010 nM and over 5010 nM, respectively. Moreover, the “Activity Class CD4+” value in test [4] was “C (IL-2 production at 3 μM compound concentration between 2-fold increase as compared to mean IL-2 production of stimulated cells in the absence of compounds and <2 ng/mL)”.
As for `CCCCNC(=O)c1cc2c(cc1N(C)C)S(=O)(=O)C[C@H](N)C(=O)N2Cc1ccc(Cl)cc1` [Example 114, (3R)-3-amino-N-butyl-5-[(4-chlorophenyl)methyl]-8-(dimethylamino)-1,1,4-trioxo-2,3,4,5-tetrahydro-1 λ^6,5-benzothiazepine-7-carboxamide hydrochloride], the EC50 in test [1] (setting [6]) is 1580 to 5010 nM; in test [1] (setting [7]), over 5010 nM. In addition, the “Activity Class CD4+” value in test [4] is “C (IL-2 production at 3 μM compound concentration between 2-fold increase as compared to mean IL-2 production of stimulated cells in the absence of compounds and <2 ng/mL)”.
With `N#Cc1ccc(CN2C(=O)[C@@H](N)CS(=O)(=O)c3cc(F)c(C(=O)NC4CC4(F)F)cc32)cc1` (stereo partly drawn) [Example 124, (3R)-3-amino-5-[(4-cyanophenyl)methyl]-N-(2,2-difluorocyclopropyl)-8-fluoro-1,1,4-trioxo-2,3,4,5-tetrahydro-1λ^6,5-benzothiazepine-7-carboxamide hydrochloride], the EC50 was 1580 to 5010 nM in test [1] (setting [6]), over 5010 nM in test [1] (setting [7]), over 5010 nM in test [2] and over 5010 nM in test [3].
With `N#Cc1ccc(CN2C(=O)[C@@H](N)CS(=O)(=O)c3cc(F)c(C(=O)NCCCC(F)(F)F)cc32)cc1` [Example 125, (3R)-3-amino-5-[(4-cyanophenyl)methyl]-8-fluoro-1,1,4-trioxo-N-(4,4,4-trifluorobutyl)-2,3,4,5-tetrahydro-1λ^6,5-benzothiazepine-7-carboxamide hydrochloride], the EC50 in test [1] (setting [6]) is under 1580 nM; in test [1] (setting [7]), 1580 to 5010 nM; in test [2], 1580 to 5010 nM; in test [3], 1580 to 5010 nM.
Regarding `N[C@H]1CS(=O)(=O)c2cc(F)c(C(=O)NC3CCC(F)(F)CC3)cc2N(Cc2ccc(Cl)cc2)C1=O` [Example 126, (3R)-3-amino-5-[(4-chlorophenyl)methyl]-N-(4,4-difluorocyclohexyl)-8-fluoro-1,1,4-trioxo-2,3,4,5-tetrahydro-1λ^6,5-benzothiazepine-7-carboxamide hydrochloride], the EC50 in test [1] (setting [6]), in test [1] (setting [7]), in test [2] and in test [3] was under 1580 nM throughout.
On to `N[C@H]1CS(=O)(=O)c2cc(F)c(C(=O)NC3CC3C(F)(F)F)cc2N(Cc2ccc(Cl)cc2)C1=O` (stereo partly drawn) [Example 127, (3R)-3-amino-5-[(4-chlorophenyl)methyl]-8-fluoro-1,1,4-trioxo-N-[2-(trifluoromethyl)cyclopropyl]-2,3,4,5-tetrahydro-1λ^6,5-benzothiazepine-7-carboxamide hydrochloride], for which the EC50 is under 1580 nM in test [1] (setting [6]), 1580 to 5010 nM in test [1] (setting [7]), under 1580 nM in test [2] and under 1580 nM in test [3].
Turning to `N[C@H]1CSc2cc(F)c(C(=O)NC3CC(F)(F)C3)cc2N(Cc2ccc(Cl)cc2)C1=O` [Example 128, (3R)-3-amino-5-[(4-chlorophenyl)methyl]-N-(3,3-difluorocyclobutyl)-8-fluoro-4-oxo-2,3,4,5-tetrahydro-1,5-benzothiazepine-7-carboxamide hydrochloride], the EC50 in test [1] (setting [6]) is 1580 to 5010 nM; in test [1] (setting [7]), 1580 to 5010 nM; in test [2], over 5010 nM; in test [3] it was 1580 to 5010 nM.
On to `CCCCNC(=O)c1cc2c(cn1)S(=O)(=O)C[C@H](N)C(=O)N2Cc1ccc(Cl)cc1` [Example 183, (3R)-3-amino-N-butyl-1-[(4-chlorophenyl)methyl]-2,5,5-trioxo-1H,2H,3H,4H-5λ^6-pyrido[3,4-b][1,4]thiazepine-8-carboxamide hydrochloride], for which the EC50 in test [1] (setting [6]) and in test [1] (setting [7]) was over 5010 nM each time. The “Activity Class CD4+” value in test [4] is “C (IL-2 production at 3 μM compound concentration between 2-fold increase as compared to mean IL-2 production of stimulated cells in the absence of compounds and <2 ng/mL)”.
Consider Ipilimumab, for which, in test [5] (Ipilimumab alone), the “Average Granzyme B” value was determined as 0.612 ng/mL; the “Average IFN-g” value was found to be 0.000 ng/mL; the “Average IL-2” value came to 0.024 ng/mL; the “Average Number of living M21 tumor cells” value was 22648 and 25130. The “synergistic enhancement of cytokine production with example 107” value in test [5] (control antibody not targeting CD8 T cells) was “No such effects were observed”.
In the case of Nivolumab, in test [5] (Nivolumab alone), the “reduction in viable tumor cells” value is “not able to cause a significant reduction in viable tumor cells”, the “Average Granzyme B” value was found to be 1.758 ng/mL, the “Average IFN-g” value was determined as 0.014 ng/mL and the “Average IL-2” value is 0.046 ng/mL. Further, the “Average Number of living M21 tumor cells” value in test [5] (Nivolumab alone) was 20344 and 22655. In addition, in test [5] (PD-1 blockade alone, CD8 T cells & M21 (expresses PD-L1)), the cytokine secretion result was “also enhanced cytokine secretion”.
